Experimental data: US11661404B2, “Prodrug compounds activated by AKR1C3 and their use for treating hyperproliferative disorders” (priority 2018, dated 2023)
“Also recorded” adds a separate entry of the source.

Columns and labels:
[1] = test system: PLC/PRF/5 hepatocellular carcinoma xenografts; experiment: Tumour growth delay, PLC/PRF/5 xenografts; type: in vivo, NIH-III mice; conditions: q4dx4 intraperitoneal, 114 mg/kg
Description: (§1) Specific pathogen-free female homozygous nude NIH-III (NIH-Lyst^bg Foxn1^nu Btk^xid) mice were bred by the Vernon Jansen Unit (shared vivarium, University of Auckland). Animals were housed in Techniplast microisolator cages and provided with a standard twelve hour day-night light schedule. Animals received standard rodent diet (Harlan Teklad diet 2018i) and water ad libitum. All animal studies were approved by the University of Auckland Animal Ethics Committee.
(§2) Animals weighed 18-25 g at the time of tumour inoculation. Tumours were grown subcutaneously on the right flank of mice by inoculating cells grown in tissue culture (1×10^7 cells in 100 uL serum free α-MEM). Tumour sizes were monitored three times weekly using electronic callipers and treatments were initiated once tumour diameter reached ≥7 mm.
(§3) Tumour bearing mice were randomised into the appropriate treatment groups and tumour size and body weight recorded. Test compounds were formulated on the day of the experiment and kept in foil-wrapped tubes out of direct fluorescent light. […] Mice were treated with a single (or q4dx3 or q4dx4 or q4dx6) dose of a compound of the invention by intraperitoneal injection and thereafter tumour size and body weight was monitored every second day. Tumour volume was calculated as […] (l×w×w)/6, where l is the major axis and w is the perpendicular minor axis. […]

[2] = test system: SW780 bladder carcinoma xenografts; experiment: Tumour growth delay, SW780 xenografts; type: in vivo, NIH-III mice; conditions: q4dx6 intraperitoneal, 50 mg/kg
Description: as §1, §2, §3

[3] = test system: SNU-398^WT (wild type) hepatocellular carcinoma xenografts; experiment: Tumour growth delay, SNU-398 wild type xenografts; type: in vivo, NIH-III mice; conditions: q4dx4 intraperitoneal, 50 mg/kg; negligible AKR1C3 expression; FIG. 7
Description: as §1, §2, §3

[4] = test system: SNU-398^AKR1C3 (AKR1C3 over-expressing) hepatocellular carcinoma xenografts; experiment: Tumour growth delay, SNU-398 AKR1C3 over-expressing xenografts; type: in vivo, NIH-III mice; conditions: q4dx4 intraperitoneal, 50 mg/kg
Description: as §1, §2, §3

[5] = Solubility by HPLC in water and lactate buffer; type: physicochemical; conditions: water, room temperature; read-out: Solubility, Water, RT
Method: (§4) The solubility and stability of compound 641 was studied by HPLC in lactate buffer (pH 4) and water as the free base and the mesylate salt (641.Ms) at 0° C. and room temperature (RT). […] However, this was improved considerably by formulation as the mesylate salt, producing a solubility of greater than 100 mmol/L in lactate buffer and greater than 70 mmol/L in water. […] This stability was improved considerably by reducing the temperature of the solution to 0° C.

[6] = test system: H460 lung cancer xenografts; experiment: Tumour growth delay, H460 xenografts; type: in vivo, NIH-III mice
Description: as §1, §2
Tumour bearing mice were randomised into the appropriate treatment groups and tumour size and body weight recorded. Test compounds were formulated on the day of the experiment and kept in foil-wrapped tubes out of direct fluorescent light. If recruitment of animals occurred over multiple days, the drug stocks were aliquoted into tubes and frozen once at −80° C. until required. Mice were treated with a single (or q4dx3 or q4dx4 or q4dx6) dose of a compound of the invention by intraperitoneal injection and thereafter tumour size and body weight was monitored every second day. Tumour volume was calculated as […] (l×w×w)/6, where l is the major axis and w is the perpendicular minor axis. Animals were culled when they had reached the appropriate survival endpoint or when body weight loss exceeded 20% of the pre-treatment value.

[7] = Stability in solution by HPLC in water and lactate buffer; type: physicochemical
Method: as §4

CN1CCN(S(=O)(=O)c2cc([N+](=O)[O-])ccc2N(CCOS(C)(=O)=O)CCOS(C)(=O)=O)CC1 [Compound 641.Ms, 4-((2-(bis(2-((methylsulfonyl)oxy)ethyl)amino)-5-nitrophenyl)sulfonyl)-1-methylpiperazin-1-ium methanesulfonate]
tolerability of schedule [1]: well-tolerated | anti-tumour activity (mean tumour volume) ([1]; FIG. 5): significant anti-tumour activity | tolerability of schedule [2]: well-tolerated | anti-tumour activity (mean tumour volume) ([2]; FIG. 6): significant anti-tumour activity | anti-tumour activity (mean tumour volume) [3]: inactive | anti-tumour activity (mean tumour volume) ([4]; FIG. 7): significant anti-tumour activity | tolerability of schedule ([4]; mice bearing SNU-398^WT or SNU-398^AKR1C3 xenografts): well-tolerated | solubility [5]: > 70 mM | anti-tumour efficacy (mean tumour volume) ([6]; q4dx4 intraperitoneal, 10, 25, 50, 100 and 150 mg/kg, FIG. 4): significant anti-tumour efficacy | mean percentage change in body weight ([6]; q4dx4 intraperitoneal, 10-150 mg/kg, all dose cohorts): ≥ −10% | tolerability ([6]; q4dx4 intraperitoneal, 10-150 mg/kg, methanesulfonate): well-tolerated; also recorded: well tolerated | anti-tumour efficacy (mean tumour volume) ([6]; single dose intraperitoneal, 237, 422, 562, 750 and 1000 μmol/kg, FIG. 3): significant anti-tumour efficacy | tolerability ([6]; single dose intraperitoneal, 237-1000 μmol/kg): well-tolerated | Stability (% Parent after 24 hours), Lactate Buffer, 0° C. ([7]; lactate buffer (pH 4), 0° C.): 91.7% | Stability (% Parent after 24 hours), Lactate Buffer, RT ([7]; lactate buffer (pH 4), room temperature, methanesulfonate): 51.9% | Stability (% Parent after 24 hours), Water, RT ([7]; water, room temperature): 53.8%
